According to US4746729A, “Cartilage-derived leukocyte elastase-inhibitor” (priority 1986, dated 1988):

System: PMN-Elastase
Test: PMN-Elastase inhibition assay with chromogenic substrate
Format: biochemical, human
Settings: substrate methoxysuccinyl-Ala-Ala-Pro-Val-p-nitroanilide, 405 nm absorption, semiquantitative
Experimental: PMN-Elastase was isolated and purified from human neutrophile as depicted in Recent Advances In Connective Tissue Research, 1986, Bukhauser Verlag, Basel, Boston, Stuttgart, C. Arsenis, E. S.-M. A. Thomar, and K. E. Kuettner, pages 63-68, incorporated herein by reference. It has essentially no cathepsin-G activity. The enzyme was tested against its natural substrates, such as type IV collagen, insoluble amorphous elastin, and against the specific synthetic substrate Methoxysuccinyl-L-Alanyl-L-Alanyl-L-Prolyl-L-Valyl-p-nitro-anilide, from which a DMSO stock solution was made. See The Journal of Bioloqical Chemistry, Vol. 254, pp. 4027-4032, 1979, K. Nakajima, J. C. Powers, B. M. Ashe, and M. Zimmerman, incorporated herein by reference. Aliquots were diluted with assay buffer for each measurement.
30 microliters (2.5-15 micrograms protein/ml) of PMN-Elastase was poured into a 96 well-plate, and 70 microliters of sample were added and incubated for 30 minutes at 30° C. After addition of 100 microliters substrate solution (methoxy-succinyl-L-Alanyl-L-Alanyl-L-Prolyl-L-Valyl-p-nitroanilide) in DMSO, dilution to 3 mM was effected with a buffer solution of 20 mM Tris and 500 mM NaCl at pH 7.3 (final DMSO concentration 10%). […] By varying the enzyme quantities, semiquantitative relationships were obtained.

serum albumin: 68 KD blood contaminant in the high molecular weight fraction of the cartilage extract
PMN-Elastase inhibitory activity: inhibit the PMN-Elastase to a certain extent
